From patent publication US10104890B2, “Compositions and methods for controlling pesticide resistant pests” (Rothamsted Research Limited, priority 2011, dated 2018)

Test system: Myzus persicae clone 5191A
Assay type: in vivo
Conditions: for LC50 (lethal concentration to kill 50% of the population): LC50 of imidacloprid, alone or after 5 h pre-treatment with 0.25 μL of 1 g L−1 synergist, apterous aphids, topical, scored 72 h after treatment, probit analysis; for SF = synergism factor (LC50 unsynergised/LC50 synergised): with imidacloprid, 1 g L−1 synergist, 5 h pre-treatment, clone 5191A
Description: Aphids for bioassays were reared on Chinese cabbage leaves (Brassica rapa L. var. Pekinensis c.v Wong Bok) (Brassicaceae) in small plastic box-cages (Blackman boxes) (Stewart Plastics Ltd, Surrey, UK) maintained at 18±2° C. with a 16 h light: 8 h dark photoperiod. Each box contained two adult aphids placed on a leaf and left for 5 days to produce nymphs. After the 5th day the adults were removed and their esterase levels determined to ensure that no contamination or loss of esterase expression (reversion) among the different clones had occurred during the rearing process. After approximately 13-15 days adults were used for bioassays.
Clone 5191A was collected from tobacco in Greece in 2007, and established from a single parthenogenetic female.
Apterous aphids were transferred from Blackman boxes (section 2.1.1) to the abaxial surface of Chinese cabbage leaf discs (approximately 10 adults per leaf disc) held on 1% agar in plastic containers (4 cm in diameter, A.W. Gregory & Co Limited, Kent, UK). The upper edge of each container was coated with Fluon® (Whitford Plastics, Cheshire, UK) to prevent aphid escape from the leaf surface. Netted lids were added to ensure apterous aphids could not escape. After allowing 30 min for the aphids to settle, each was dosed with 0.25 μL of 1 g L^−1 synergist dissolved in acetone or acetone only using a Burkard microapplicator (Burkhard Scientific, Middx, UK). Synergist concentrations chosen conferred no significant mortality compared to the acetone control treatment in preliminary bioassays. Five hours later, aphids were further treated with 0.25 μL imidacloprid in acetone at a range of concentrations, at least 3 replicates per concentration per bioassay. Controls were treated with 0.25 μL of acetone or 1 g L^−1 synergist in acetone and after 5 h with a further 0.25 μL of acetone.
Treated aphids were kept at 18±2° C. and 16 h light: 8 h dark photoperiod and scored 72 h after treatment. Aphids incapable of co-ordinated movement (after gentle touching with a paint brush if necessary) were scored as dead. All bioassays were performed a minimum of three times.
Pooled raw data from at least three separate bioassays were analysed by probit analysis using the statistical programme PC Polo Plus (LeOra, Software, Berkeley, USA). Polo Plus programme calculated the concentrations required to kill 50% of the population (LC50), 95% confidence limits (CL95%), slopes with standard errors (SE), chi-square (χ2) and degrees of freedom (df). Natural response was also estimated when control mortality occurred.

SMILES | LC50 (lethal concentration to kill 50% of the population) | SF = synergism factor (LC50 unsynergised/LC50 synergised)
CCCCOCCOCCOCc1cc2c(cc1CCC)CCC2 [EN 14-5] | 41.5 ppm | 2.17
CCCCOCCOCCOCc1cc2c(cc1CCC)CCO2 [EN 16-5] | 12.2 ppm | 7.41
CC#CCOc1cc2c(cc1CCC)CCO2 [EN 16-17] | 7.11 ppm | 12.7
CC#COCc1ccc2c(c1)CCO2 [EN 16-18] | 18.4 ppm | 4.91
CC#CCO[C@H](C)c1ccc(OC)c(OC)c1 [EN 25-10] | 4.88 ppm | 18.5
CC#CCOCc1cc2c(cc1CCC)OCO2 [EN 126] | 0.31 ppm | 292
CCCCCCCCCCCCc1ccc2c(c1)OCO2 [EN 129] | 28.4 ppm | 3.18
CC#CCOc1ccc2c(c1)OCO2 [EN 163] | 2.98 ppm | 30.3
CC#CCOc1cc2c(cc1CCC)OCO2 [EN 164] | 1.25 ppm | 72.4
CCCCOCCOCCOCc1cc2c(cc1CCC)OCO2 [PBO, piperonyl butoxide] | 6.22 ppm | 14.5
O=[N+]([O-])NC1=NCCN1Cc1ccc(Cl)nc1 [imidacloprid] | 90.4 ppm | 
